TGI data for 14 compounds are collected here from PubChem BioAssay (NCI).

Each structure is given as a SMILES string.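 A five-concentration, 48-hour dose response in 96-well plates underlies each endpoint, interpolated linearly between surrounding concentrations. At the TGI there is no net growth.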

Test systems include SK-MEL-2 melanoma; 786-0 renal; HOP-62 NSCLC; DU-145 prostate; NCI-H226 lung; A498 renal; HOP-92 NSCLC; TK-10 renal; OVCAR-8 ovarian; CCRF-CEM leukemia.
What all share (experiment): DTP human tumour cell line panel, 48 h

As to `CCOP1(=O)OCC2OC(n3cnc4c(N)ncnc43)C(O)C2O1` (stereo unspecified), the TGI in the experiment on SK-MEL-2 melanoma, in the experiment on 786-0 renal, in the experiment with HOP-62 NSCLC, in the experiment with DU-145 prostate, in the experiment on NCI-H226 lung and in the experiment on A498 renal was above 100 µM throughout. In addition, the TGI with HOP-92 NSCLC, in the experiment on TK-10 renal and in the experiment on OVCAR-8 ovarian was above 100 µM each time.
For the compound `COC(=O)C1=CC(=O)C(C(=O)Nc2ccc(OC)cc2)C(c2ccccc2)O1` (stereo unspecified), the TGI with SK-MEL-2 melanoma was above 100 µM; in the experiment with 786-0 renal, 41.5 µM; in the experiment on CCRF-CEM leukemia, above 100 µM; with HOP-62 NSCLC it was 50.9 µM; in the experiment with NCI-H226 lung, 55.1 µM; with A498 renal, 68 µM. Besides, the values for the TGI in the experiment on HOP-92 NSCLC, in the experiment on TK-10 renal and with OVCAR-8 ovarian were 48.1 µM, 73.5 µM and 96.8 µM, respectively.
On to `O=c1[nH]nc(-c2ccccc2)c(-c2ccccc2)c1-n1nc(-c2ccccc2)c2ccccc2c1=O`, for which the TGI with SK-MEL-2 melanoma, in the experiment on 786-0 renal, in the experiment with CCRF-CEM leukemia, in the experiment on HOP-62 NSCLC, with NCI-H226 lung and in the experiment on A498 renal was above 100 µM throughout. Further, the TGI in the experiment with HOP-92 NSCLC, in the experiment on TK-10 renal and in the experiment on OVCAR-8 ovarian was above 100 µM throughout.
For `[N-]=[N+]=Nc1ccc(S(=O)(=O)Oc2cc(OS(=O)(=O)c3ccc(N=[N+]=[N-])cc3)cc(OS(=O)(=O)c3ccc(N=[N+]=[N-])cc3)c2)cc1`, the TGI with SK-MEL-2 melanoma was above 100 µM; in the experiment with 786-0 renal, above 100 µM; in the experiment on CCRF-CEM leukemia, above 100 µM; in the experiment with HOP-62 NSCLC it was above 100 µM; in the experiment with NCI-H226 lung, above 10 µM; in the experiment with A498 renal, above 100 µM. Further, the TGI was above 100 µM in the experiment with HOP-92 NSCLC, above 100 µM in the experiment with TK-10 renal and above 10 µM with OVCAR-8 ovarian.
As for `COC1CCC(=C2C(=O)OC(C)(C)OC2=O)N1` (stereo unspecified), the concentration for total growth inhibition (TGI) in the experiment on SK-MEL-2 melanoma, with 786-0 renal, in the experiment on CCRF-CEM leukemia, with HOP-62 NSCLC, with NCI-H226 lung and in the experiment on TK-10 renal was above 100 µM each time. Also, the concentration for total growth inhibition (TGI) with OVCAR-8 ovarian is above 100 µM.
Turning to `COC(=O)C1Cc2c([nH]c3ccccc23)[C@H](CC(C)C)N1` (stereo partly specified), the TGI in the experiment with SK-MEL-2 melanoma, with 786-0 renal, with CCRF-CEM leukemia, in the experiment with HOP-62 NSCLC, with NCI-H226 lung and with A498 renal was above 100 µM each time. Besides, the TGI in the experiment on HOP-92 NSCLC, in the experiment on TK-10 renal and in the experiment on OVCAR-8 ovarian was above 100 µM each time.
Turning to `CC(=O)OC1COC(N2C(=O)C(=O)c3c(C)cc(Cl)nc32)C(OC(C)=O)C1OC(C)=O` (stereo unspecified), the total growth inhibition concentration (TGI) with SK-MEL-2 melanoma, in the experiment on 786-0 renal, in the experiment on CCRF-CEM leukemia, in the experiment with HOP-62 NSCLC, in the experiment with NCI-H226 lung and with A498 renal was above 100 µM each time. Further, the TGI in the experiment on HOP-92 NSCLC, in the experiment with TK-10 renal and with OVCAR-8 ovarian was above 100 µM throughout.
As for `CC(=O)NNc1nc(C)c(C(/C=C/c2ccc(/C=C/C(=N\NC(=O)c3ccncc3)c3sc(NNC(C)=O)nc3C)cc2)=N/NC(=O)c2ccncc2)s1`, the total growth inhibition concentration (TGI) in the experiment with SK-MEL-2 melanoma, in the experiment with 786-0 renal, in the experiment on CCRF-CEM leukemia, in the experiment with HOP-62 NSCLC, with NCI-H226 lung and with A498 renal was above 100 µM each time. In addition, the TGI with HOP-92 NSCLC, with TK-10 renal and with OVCAR-8 ovarian was above 100 µM throughout.
As to `CCCCNC(=S)Nn1c(-c2ccccc2)nc2ccccc2c1=O`, the TGI with SK-MEL-2 melanoma, in the experiment with 786-0 renal, with CCRF-CEM leukemia, in the experiment on HOP-62 NSCLC, in the experiment on NCI-H226 lung and with A498 renal was above 100 µM in each case. The TGI in the experiment on HOP-92 NSCLC, in the experiment on TK-10 renal and with OVCAR-8 ovarian was above 100 µM throughout.
As to `COc1ccc(CN(O)C2C(CO)OC(n3cc(I)c(=O)[nH]c3=O)C2O)cc1` (stereo unspecified), the TGI in the experiment on SK-MEL-2 melanoma, with 786-0 renal, with CCRF-CEM leukemia, with HOP-62 NSCLC, with A498 renal and in the experiment with HOP-92 NSCLC was above 100 µM each time. The TGI in the experiment with TK-10 renal and with OVCAR-8 ovarian was above 100 µM each time.
`CC(=O)Oc1c(-c2ccccc2)[nH]c2cc([N+](=O)[O-])c(/C(Cl)=C/c3ccccc3)cc12`: the TGI in the experiment on SK-MEL-2 melanoma was found to be 30.8 µM; with 786-0 renal, 25.5 µM; in the experiment with CCRF-CEM leukemia, 29.5 µM; with HOP-62 NSCLC, 61.5 µM; in the experiment with NCI-H226 lung it was 18.1 µM; in the experiment on A498 renal, 23.6 µM. The TGI with HOP-92 NSCLC was 18.3 µM; with TK-10 renal it was 64.4 µM; in the experiment with OVCAR-8 ovarian, 17.7 µM.
In the case of `C[N+](C)(C)CC(=O)N/N=C(/C=C/c1ccccc1)CC1OC(=O)c2ccccc21` (stereo unspecified), the TGI in the experiment on SK-MEL-2 melanoma, with 786-0 renal, in the experiment with CCRF-CEM leukemia, with HOP-62 NSCLC, with NCI-H226 lung and in the experiment on A498 renal was above 100 µM throughout. Also, the TGI is above 10 µM with HOP-92 NSCLC, above 100 µM in the experiment on TK-10 renal and above 100 µM with OVCAR-8 ovarian.
In the case of `COC(=O)C1=C(O)C(O)=C(C(=O)OC)CC1`, the TGI in the experiment on SK-MEL-2 melanoma, in the experiment with 786-0 renal, in the experiment with CCRF-CEM leukemia, with HOP-62 NSCLC, in the experiment on NCI-H226 lung and in the experiment with A498 renal was above 100 µM in each case. Moreover, the TGI in the experiment with HOP-92 NSCLC, in the experiment with TK-10 renal and in the experiment with OVCAR-8 ovarian was above 100 µM in each case.
In the case of `CC(C)c1ccc2c(c1)CCC1C(C)(C)[C@@H](O)CC[C@]21C` (stereo partly specified), the TGI with 786-0 renal was 52.5 µM; in the experiment with CCRF-CEM leukemia it was above 100 µM; in the experiment with HOP-62 NSCLC, 37.4 µM; with NCI-H226 lung it was 38.5 µM; with HOP-92 NSCLC, 52.8 µM; in the experiment with TK-10 renal it was above 100 µM. In the experiment on OVCAR-8 ovarian, this compound returned a TGI above 100 µM.
